Test results taken from US4680382A, “Analogues of actinomycin D” (priority 1986, dated 1987).
*1 amine or outer side, *2 acyl side, *3 side chain or, on linkers, in order; H or OH if unused. Where a SMILES comes first, the peptide text is derived from it. Bridges are numbered along the chain shown (N, C = ends). Roman numbers before positions name the chains, in order. [ ]: non-standard residue; d: D form. Actinocin(9to1) = Cc1c2oc3c(C)ccc(C(=O)[*:1])c3nc-2c(C(=O)[*:2])c(N)c1=O; NMeV = CN[C@H](C(=O)O)C(C)C; Sar = CNCC(=O)O

Legend:
[1] = tested on: CCRF-CEM human lymphoblastic leukemic cells; experiment: In vitro cytotoxicity against CCRF-CEM cells; format: cell-based; details: 48 hr
Method: ^a Human lymphoblastic leukemic cells.
The analogues were tested for their cytotoxicity against tumor cells (time, 48 hr). […] This may be associated with the initial microsomal transformation of the "reverse" analogues to "symmetrical" analogue and/or other alternate bioactive forms (e.g., free-radicals, O2^-), followed by deactivation via formation of conjugates and facile elimination of these from the host. The "reverse" analogues show reduced toxicity in vivo and also the tritiated "reverse" 7a is metabolized in vitro.

DNA = experiment: Thermal denaturation of DNA (ΔTm); format: binding
Method: The "reverse" analogues bind to calf-thymus DNA, but the spectrophotometrically determined binding (Kapp and Bapp, equilibrium binding values) constants are found to be lower than those of AMD. The binding is also measured by thermal denaturation of DNA.
The equilibrium binding constants (Kapp and Bapp) of the "reverse" methyl 7a and the "reverse" phenyl 8a were determined from the Scatchard plots of binding isotherms; the Scatchard plots are produced according to the previously described methods using calf-thymus DNA [Sengupta et al, Biochem. Biophys. Acta 521, 89 (1978)]. The Kapp values are 2.5×10^6 and 2.3×10^6 M^-1, respectively; corresponding Bapp values are 0.038 and 0.036. […] But, these "reverse" analogues associate with DNA less strongly; their frequency of binding is also lower compared to that of AMD. However, the "reverse" analogues fail to cause any measurable change in the ratio of the intrinsic viscosity (γ) of DNA with the increasing ratios of [ligand]/DNA base pair (r), even when low molecular weight DNAs (0.5×10^5 to 1.0×10^5) were employed.
(§1) Melting points are determined on a Thomas-Hoover melting point apparatus at a heating rate of 2° C./min. Thin-layer chromatography was performed on silica gel plates (Brinkmann Instrument Inc.). Solvent systems were (A) EtOAc-acetone (4:1), (B) CHCl3 -MeOH (9:1) and (C) Cifferri, the organic phase of the mixture EtOAc-MeOH-H2 O (20:1:20). High-performance liquid chromatography was carried out on a Varian Model 5020 gradient liquid chromatograph equipped with a CD-111L chromatography data system and fitted with a Varian reversed-phase C18 column with the following solvent systems: I, CH3 CN-5 mM NH4 OAc buffer, pH 6.4 (68:32 isocratic), flow rate 1.5 mL/min; II, 65-95% water-methanol gradient for 70 min, 1 mL/min; III, 10-90% H2 O-MeOH gradient for 120 min, 1 mL/min, with UV-visible variable- and fixed-wavelength dual detectors at 254, 440, 470 and 520 nm. IR spectra were obtained on a Perkin-Elmer Model 237 Infra Cord with KBr micropellets or in chloroform solutions. UV-visible spectra were obtained on a Gilford 250 spectrophorometer, which, with the addition of a base-line reference compensator (Analog Multiplexer 5053) and thermoprogrammer, auto four cell programmer and thermoelectric cell holder 2577, were used to obtain thermal denaturation curves. Specific rotation values were determined in chloroform solutions with a Cary 60 spectropolarimeter. NMR spectra were obtained in a JEOL FQ-90 MHz spectrometer equipped with Fourier transform. EPR spectra analyses were recorded in a Varian E-9 EPR spectrometer. All elemental analyses were within ±0.4%.

[2] = Metabolism of tritiated drugs in tumor cell homogenate (sonicated P388 cells); format: in vitro ADME, murine; details: tumor cell homogenate (T), 16 hr; for Percent isolated: unconverted: 37° C.
Method: A method of using tumor cell sonicates was developed to study the metabolism of the analogues of AMD. By use of sonicated cells, the dilution effects that would occur if flasks of cultured cells were used are avoided. Although the cells are disrupted by this method, their enzyme systems appear to remain active. Large numbers of tumor cells (P388 murine leukemia) were sonicated in Earle's balanced salt solution (EBSS) and were incubated with tritiated AMD and its analogues 7a and 9a (Table II) for 16 hr. In another experiment, the analogues were treated with rat hepatic microsomes at 37° C. for 6 hr in the presence of a NADPH-generating system. The metabolic products were isolated and identified with the following results (Table II). […] In the microsomes, the major metabolites were in unconjugated forms; in the tumor cell homogenates, the major identified metabolites were glucuronide and sulfate conjugated forms. It should be pointed out that in these metabolic experiments, the identification of these glucuronide and/or sulfate conjugates was made only on the basis of the disappearance of the peaks from the HPLC chromatograms upon treatment with deconjugating enzymes glucarase.
A large number of P388 cells (10^8 cells) were sonicated in Earle's balanced salt solution (EBSS) in ice. Tritiated analogues 7a, 8a and AMD, 0.4 Ci/mmol, were added and the mixtures were incubated at 37° C. for 16 hr. Drugs in EBSS without the addition of the cell sonicates served as controls. The samples were treated with urea to bring the urea concentration to 5M. The procedure helped to free all drugs that associated noncovalently with DNA. After 60 min at room temperature, the samples were centrifuged through Amicon 1053 cone filters (molecular weight cut-off approximately 25000) after adjustment of pH to 5 to facilitate extraction of unconjugated metabolites in organic solvents.
Unconjugated or uncoupled products were first extracted with ethyl acetate (step A) and aliquots of aqueous layers were treated with equal volumes of glucarase (a preparation of β-glucuronidase and sulfatase) or with buffer (control); see following section. The glucuronide and the sulfate derivatives were thus deconjugated and the freed products were extracted in ethyl acetate (step B). A highly sensitive technique for detection of a series of AMD analogues using HPLC was employed; sensitivity of this assay ranges from 50 nmol when UV-visible absorbances are used to 1 pmol when radioactive analogues of appropriate specific activities are used.
The products in the ethyl acetate extracts were analyzed by HPLC using system I. Prior to deconjugation, the above aqueous layers were examined by systems II and III, which are more suitable for the water-soluble metabolites.
The aqueous layers from step B were combined with the material which was left as residues in the cones in step A. The residues in the cones were extracted in dilute sodium hydroxide and separated from the cell debris by centrifugation (2500 rpm), and the biopolymers were precipitated from the extract with excess ethanol. The precipitated polymers, mostly protein, were lyophilized and dissolved in 0.05M Tris-HCl and were fractionated on Superfine Sephacryl S-200 and the molecular weights of the major fractions were approximated. The major parts of radioactivity were confined to high molecular weight proteins with molecular weights above 67000. The amount of the tissue-bound material was estimated from the pellets in the above centrifugation (2500 rpm). The percentages were calculated on the basis of the total radioactive materials recovered. In most cases, it was over 90%.

liver microsomes = experiment: EPR detection of free-radical intermediates with liver microsomes and NADPH (anaerobic); format: biochemical; details: NADPH, potassium phosphate buffer
Method: No free-radical intermediates were detected in the absence of enzyme or substrates.
as §1

With `Cc1nc2c(C(=O)NC3C(=O)NC(C(C)C)C(=O)N4CCCC4C(=O)N(C)CC(=O)N(C)C(C(C)C)C(=O)OC3C)c3nc4c(C(=O)NC5C(=O)NC(C(C)C)C(=O)N6CCCC6C(=O)N(C)CC(=O)N(C)C(C(C)C)C(=O)OC5C)c(N)c(=O)c(C)c-4oc3c(C)c2o1` [7a, 7-Amino-2,9,11-trimethyl-8H-8-oxooxazolo [4,5-b]phenoxazine 4,6-bis[carbonyl-L-threonyl-D-valyl-L-prolylsarcosyl-L-N-methylvaline-(threonine hydroxyl)] lactone] the “in vitro (CCRF-CEM) ID50” value [1] was 110 nM, the “ΔTm (DNA melting temperature)” value (DNA) was 5.5±0.3 °C and the “Percent isolated: "tissue" bound” value [2] was 8.8%. For the same molecule, the “Percent isolated: protein conjugates” value [2] was 5.5%, the “Percent isolated: unidentified metabolite” value [2] was 12.7% and the “Percent metabolite isolated: 4a glucuronide and/or sulfate” value [2] was 17.5%. For the same molecule, the “Percent metabolite isolated: "symmetrical" AMD (4a)” value [2] was 15.5%, the “Percent isolated: unconverted” value [2] was 40% and the “free-radical intermediate detected by EPR” value (liver microsomes) was “Free-radical intermediates were also detected”.
With `Cc1nc2c(C(=O)NC3C(=O)NC(C(C)C)C(=O)N4CCCC4C(=O)N(C)CC(=O)N(C)C(C(C)C)C(=O)OC3C)c3nc4c(C(=O)NC5C(=O)NC(C(C)C)C(=O)N6CCCC6C(=O)N(C)CC(=O)N(C)C(C(C)C)C(=O)OC5C)cc(=O)c(C)c-4oc3c(C)c2o1` (stereo not shown) [9a] the “Percent isolated: "tissue" bound” value [2] was 7.5%, the “Percent isolated: protein conjugates” value [2] was 5.5% and the “Percent isolated: unidentified metabolite” value [2] was 46.3%. The “Percent metabolite isolated: 2a glucuronide and/or sulfate” value [2] was 12.2%, the “Percent metabolite isolated: 7-hydroxy-AMD (2a)” value [2] was 8.5% and the “Percent isolated: unconverted” value [2] was 20%.
With `Cc1c2oc3c(C)ccc(C(=O)N[C@@H]4C(=O)N[C@H](C(C)C)C(=O)N5CCC[C@H]5C(=O)N(C)CC(=O)N(C)[C@@H](C(C)C)C(=O)O[C@@H]4C)c3nc-2c(C(=O)N[C@@H]2C(=O)N[C@H](C(C)C)C(=O)N3CCC[C@H]3C(=O)N(C)CC(=O)N(C)[C@@H](C(C)C)C(=O)O[C@@H]2C)c(N)c1=O` [AMD, Actinomycin D] (I: T[dV]P[Sar][NMeV] / II: T[dV]P[Sar][NMeV]; ester I:1-I:C, II:1-II:C; linker I:N-II:N via Actinocin(9to1)) the “in vitro (CCRF-CEM) ID50” value [1] was 50 nM, the “ΔTm (DNA melting temperature)” value (DNA) was 7.1±0.15 °C and the “Percent isolated: unconverted” value [2] was 100%. The “free-radical intermediate detected by EPR” value (liver microsomes) was “free-radical intermediate with broad resonance peaks was detected”.
For `Cc1c2oc3c(C)c(O)c(N)c(C(=O)NC4C(=O)NC(C(C)C)C(=O)N5CCCC5C(=O)N(C)CC(=O)N(C)C(C(C)C)C(=O)OC4C)c3nc-2c(C(=O)NC2C(=O)NC(C(C)C)C(=O)N3CCCC3C(=O)N(C)CC(=O)N(C)C(C(C)C)C(=O)OC2C)c(N)c1=O` (stereo not shown) [4a, 7-Hydroxy-8-amino-actinomycin D], the “in vitro (CCRF-CEM) ID50” value [1] was 30 nM, the “ΔTm (DNA melting temperature)” value (DNA) was 7.9±0.2 °C and the “free-radical intermediate detected by EPR” value (liver microsomes) was “Free-radical intermediates were also detected”.
